Experimental data from patent US20210161804A1, “FLUTICASONE AND VILANTEROL FORMULATION AND INHALER” (KINDEVA DRUG DELIVERY L.P., priority 2018, published 2021).

How the values were obtained:
[1] = Through life delivered dose (unit spray collection apparatus); assay type: physicochemical; conditions: beginning, middle, end of unit, 3 MDIs, 28.3 L/minute
Method: The through life delivered dose was determined using standard unit spray collection apparatus (USCA) fitted with a filter. For each determination, an MDI was attached to the USCA using a coupler. Immediately prior to attachment, the MDI was vigorously shaken. Prior to collection of the test sample, the MDI was primed by actuating four times and before each priming actuation the MDI was vigorously shaken. For each example tested, three MDIs were used. Each MDI was tested with a single actuation into the instrument at the beginning, middle, and end of the unit resulting in 3 actuations per MDI (9 actuations total). The flow rate through the equipment was regulated to 28.3 L/minute+/−0.5 L/minute. The test sample deposited in the USCA was collected by rinsing with a known volume of collection solvent. The recovered samples were then analyzed for sample content using an HPLC assay with reference to a known standard. An HPLC instrument with a UV detector (220 nm at 0 minutes, 240 nm at 5 minutes) and a symmetry shield RP18, 150 mm×4.6 mm (3.5 microns) column (temperature 25° C.) was used. The mobile phase was 10 mM SDS (sodium dodecyl sulphate), 60:40 (v/v) acetetonitrile:50 mM NH4OAc (ammonium acetate), pH 5.50. The injection volume was 50 microliters and the flow rate was 1.0 mL/minute.

[2] = Next Generation Impactor (NGI) aerodynamic particle size distribution; assay type: physicochemical
Method: The aerodynamic particle size distribution emitted from each MDI was evaluated using a Next Generation Impactor Instrument (MSP Corporation, Shoreview, Minn.). For each test, an MDI was attached to the throat component (Emmace anatomical throat, Emmace Consulting, Lund, Sweden) of the NGI instrument and actuated 6 times into the instrument. Prior to each actuation the MDI was vigorously shaken Immediately prior to attachment, the MDI was primed by actuating 4 times. Prior to each priming shot the MDI was vigorously shaken. The flow rate through the instrument during testing was regulated at 30 L/minute. The test sample (fluticasone furoate and vilanterol trifenatate) deposited on the valve stem, actuator, throat assembly (Emmace anatomical throat), individual uncoated collection cups 1-7, micro-orifice collector (MOC), and final filter component was collected by rinsing each individual component with a known volume of collection solvent. The recovered samples were then analyzed for sample content using an HPLC assay with reference to a known standard. An HPLC instrument with a UV detector (220 nm at 0 minutes, 240 nm at 5 minutes) and a symmetry shield RP-18, 4.6-150 mm column (25° C. column temp) was used. The mobile phase was 10 mM SDS, 60:40 (v/v) […]:50 mM NH4OAc, pH 5.5). The injection volume was 50 microliters and the flow rate was 1.0 mL/min.
In Table 1 the fine particle mass (FPM), impactor sized mass (ISM), mass median aerodynamic diameter (MMAD), and throat hold up data for fluticasone furoate (FF) and vilanterol trifenatate (VT) is presented. At each time point 3 individual MDIs were tested and the result is presented as the mean value.
Total Ex-valve content was determined as the sum of the sample content from all twelve analyzed components (valve stem through filter) (reported as micrograms/actuation).
Throat hold up was determined as the ratio of the sample content from the throat assembly divided by the total ex-valve content.
Aerodynamic particle size from a Relvar® Ellipta® 92/22 (fluticasone furoate/vilanterol trifenatate) dry powder inhaler was evaluated as described above for NGI studies with the following changes. The Relvar device was not primed prior to analysis, nor was it shaken prior to actuation. For each test the Relvar was actuated once. An adaptor was prepared and used to obtain a good fit between device mouthpiece and the Emmace throat. A flow rate of approximately 80 L/min was used to achieve a 4 kPa pressure drop in the NGI. A pre-separator was used between the throat assembly and cup 1. Cups 1 to 7 were pre-coated with 50:50 (v/v) glycerol:methanol.
In tables 1-8 above, FPM and ISM are reported as micrograms (mcg) per actuation and MMAD is reported in microns (um). FPM (Fine Particle Mass) was determined as the sum of the sample content determined for cups 3-7, the MOC, and the filter. ISM (Impactor Sized Mass) was determined as the sum of the sample content determined for cups 2-7, the MOC, and the filter. In the examples, the concentrations of fluticasone furoate, vilanterol trifenatate, ethanol, and HFA-227 in the suspension formulations are reported as weight percent (wt. %).

[3] = MDIs of Example 8 (58 microliter primeless valve, no ethanol, HFA-227)
[4] = MDIs of Example 9 (58 microliter primeless valve, 0.05% ethanol, HFA-227)
[5] = MDIs of Example 10 (58 microliter primeless valve, 0.5% ethanol, HFA-227)
[6] = Comparative Example 1: Relvar Ellipta 92/22 dry powder inhaler, actuated once, approximately 80 L/min (4 kPa), pre-separator
[7] = Comparative Example 1: Relvar Ellipta 92/22 dry powder inhaler, approximately 80 L/min (4 kPa), pre-separator
[8] = MDI of Example 1: FF MMD about 3.7 microns, VT MMD about 1.4 microns, HFA-227, 30 L/minute
[9] = MDI of Example 1: FF MMD about 3.7 microns, VT MMD about 1.4 microns, HFA-227, 30 L/minute, Emmace anatomical throat
[10] = MDI of Example 1: FF MMD about 3.7 microns, VT MMD about 1.4 microns, HFA-227, per actuation, 30 L/minute
[11] = MDI of Example 1: FF MMD about 3.7 microns, VT MMD about 1.4 microns, HFA-227, per actuation, 30 L/minute, mean of 3 MDIs
[12] = MDI of Example 2: FF MMD about 2.9 microns, VT MMD about 1.4 microns, HFA-227, 30 L/minute
[13] = MDI of Example 2: FF MMD about 2.9 microns, VT MMD about 1.4 microns, HFA-227, per actuation, 30 L/minute
[14] = MDI of Example 3: FF MMD about 3.7 microns, VT MMD about 4.2 microns, HFA-227, 30 L/minute
[15] = MDI of Example 3: FF MMD about 3.7 microns, VT MMD about 4.2 microns, HFA-227, per actuation, 30 L/minute
[16] = MDI of Example 4: FF MMD about 2.9 microns, VT MMD about 3.4 microns, HFA-227, 30 L/minute
[17] = MDI of Example 4: FF MMD about 2.9 microns, VT MMD about 3.4 microns, HFA-227, per actuation, 30 L/minute
[18] = MDI of Example 5: FF micronized MMD about 2.0 microns, VT high pressure homogenized MMD about 1.4 microns, HFA-227, 30 L/minute
[19] = MDI of Example 5: FF micronized MMD about 2.0 microns, VT high pressure homogenized MMD about 1.4 microns, HFA-227, per actuation, 30 L/minute
[20] = MDI of Example 6: FF MMD about 2.9 microns, VT MMD about 1.4 microns, 0.05% ethanol, HFA-227, 30 L/minute
[21] = MDI of Example 6: FF MMD about 2.9 microns, VT MMD about 1.4 microns, 0.05% ethanol, HFA-227, per actuation, 30 L/minute
[22] = MDI of Example 7: FF MMD about 2.9 microns, VT MMD about 1.4 microns, 0.5% ethanol, HFA-227, 30 L/minute
[23] = MDI of Example 7: FF MMD about 2.9 microns, VT MMD about 1.4 microns, 0.5% ethanol, HFA-227, per actuation, 30 L/minute

Row | mean through life delivered dose [1, 3] [micrograms/actuation] | mean through life delivered dose [1, 4] [micrograms/actuation] | mean through life delivered dose [1, 5] [micrograms/actuation] | FPM (fine particle mass) [2, 6] [µg] | ISM (impactor sized mass) [2, 6] [µg] | MMAD (mass median aerodynamic diameter) [2, 7] [um] | Throat hold up [2, 7] [%] | MMAD (mass median aerodynamic diameter) [2, 8] [um] | Throat hold up [2, 9] [%] | ISM (impactor sized mass) [2, 10] [µg] | FPM (fine particle mass) [2, 11] [µg] | MMAD (mass median aerodynamic diameter) [2, 12] [um] | Throat hold up [2, 12] [%] | FPM (fine particle mass) [2, 13] [µg] | ISM (impactor sized mass) [2, 13] [µg] | MMAD (mass median aerodynamic diameter) [2, 14] [um] | Throat hold up [2, 14] [%] | FPM (fine particle mass) [2, 15] [µg] | ISM (impactor sized mass) [2, 15] [µg] | MMAD (mass median aerodynamic diameter) [2, 16] [um] | Compound | also measured
1 | 57.1 | 55.5 | 58.0 | 26.5 | 31.5 | 3.4 | 26.0 | 3.5 | 52.8 | 27.7 | 19.6 | 3.1 | 38.8 | 27.0 | 35.9 | 4.0 | 47.0 | 25.0 | 37.5 | 3.2 | C[C@@H]1C[C@H]2[C@@H]3C[C@H](F)C4=CC(=O)C=C[C@]4(C)[C@@]3(F)[C@@H](O)C[C@]2(C)[C@@]1(OC(=O)c1ccco1)C(=O)SCF [FF, fluticasone furoate] | Throat hold up [2, 16]: 43.0%; FPM (fine particle mass) [2, 17]: 28.5 µg; ISM (impactor sized mass) [2, 17]: 38.4 µg; MMAD (mass median aerodynamic diameter) [2, 18]: 2.9 um; Throat hold up [2, 18]: 31.5%; FPM (fine particle mass) [2, 19]: 30.2 µg; ISM (impactor sized mass) [2, 19]: 35.7 µg; MMAD (mass median aerodynamic diameter) [2, 20]: 3.2 um; Throat hold up [2, 20]: 48.6%; FPM (fine particle mass) [2, 21]: 23.1 µg; ISM (impactor sized mass) [2, 21]: 31.5 µg; MMAD (mass median aerodynamic diameter) [2, 22]: 3.0 um; Throat hold up [2, 22]: 46.0%; FPM (fine particle mass) [2, 23]: 26.3 µg; ISM (impactor sized mass) [2, 23]: 34.9 µg
2 | 13.8 | 13.3 | 14.4 | 11.6 | 12.3 | 1.8 | 16.1 | 1.9 | 34.0 | 10.8 | 10.0 | 2.0 | 28.5 | 9.9 | 10.8 | 3.7 | 43.4 | 6.5 | 8.9 | 3.1 | OCc1cc([C@@H](O)CNCCCCCCOCCOCc2c(Cl)cccc2Cl)ccc1O [VT, vilanterol trifenatate] | Throat hold up [2, 16]: 41.0%; FPM (fine particle mass) [2, 17]: 7.5 µg; ISM (impactor sized mass) [2, 17]: 9.8 µg; MMAD (mass median aerodynamic diameter) [2, 18]: 2.6 um; Throat hold up [2, 18]: 31.1%; FPM (fine particle mass) [2, 19]: 8.4 µg; ISM (impactor sized mass) [2, 19]: 9.5 µg; MMAD (mass median aerodynamic diameter) [2, 20]: 2.0 um; Throat hold up [2, 20]: 37.8%; FPM (fine particle mass) [2, 21]: 8.9 µg; ISM (impactor sized mass) [2, 21]: 9.9 µg; MMAD (mass median aerodynamic diameter) [2, 22]: 2.0 um; Throat hold up [2, 22]: 36.1%; FPM (fine particle mass) [2, 23]: 10.3 µg; ISM (impactor sized mass) [2, 23]: 11.2 µg
